Assay results from PubChem BioAssay (NCI).
“And” between values parts separate entries of the source, which are not always exact repeats. Identical values can stand only once.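 Cells were grown in 96-well plates and exposed to each compound for 48 hours at five concentrations; endpoints were interpolated linearly between bracketing concentrations, or set to the highest concentration if not reached. GI50 is the concentration that inhibits growth by half. TGI is the concentration that stops growth completely.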

Tests used:
Assay in all cases: NCI tumour cell line growth inhibition, 48 h
[1] = tested on: HS 578T breast
[2] = tested on: HT29 colon
[3] = tested on: RPMI-8226 leukemia
[4] = tested on: HOP-62 NSCLC
[5] = tested on: HCT-15 colon
[6] = tested on: M14 melanoma
[7] = tested on: SNB-75 CNS
[8] = tested on: 786-0 renal
[9] = tested on: K-562 leukemia
[10] = tested on: UACC-257 melanoma

Structure (SMILES)	GI50 [1] [µM]	TGI [1]	GI50 [2] [µM]	TGI [2]	GI50 [3] [µM]	TGI [3] [µM]	GI50 [4] [µM]	TGI [4] [µM]	GI50 [5] [µM]	TGI [5]	GI50 [6] [µM]	TGI [6]	GI50 [7] [µM]	TGI [7]	GI50 [8] [µM]	TGI [8]	GI50 [9] [µM]	TGI [9] [µM]	GI50 [10] [µM]	TGI [10]
COc1c2ccccc2c(O)c2c(=O)c(C(=O)O)cn(C)c12	> 100	> 100 µM	> 100	> 100 µM	> 100	> 100	> 100	> 100	> 100	> 100 µM	> 100	> 100 µM	> 100	> 100 µM	> 100	> 100 µM	> 100	> 100	> 100	> 100 µM
Cc1ccc(-c2ccc(Nc3c4ccccc4nc4ccccc34)cc2)cn1		58.3 µM		4.75 µM		4.54		3.77		17.2 µM		11.2 µM				3.42 µM		10.7		28.5 µM
CCOC(=O)/C=C1\SC(=Nc2ccc(C#N)cc2)N(CCN2C(=O)/C(=C/C(=O)OCC)SC2=Nc2ccc(C#N)cc2)C1=O	3.84	> 70.5 µM	1.11	10.1 µM	0.415	2.99	2.55	8.39	0.408	2.53 µM	3.3	18.2 µM	5.02	36.1 µM	2.08	6.33 µM	0.786	> 100	14	36.4 µM
O=C(Oc1ccc([N+](=O)[O-])cc1)N1CCN(Cc2cccc(Oc3ccccc3)c2)CC1	> 100	> 100 µM	40.6	> 100 µM	13.1	> 100	> 100	> 100	> 100	> 100 µM	> 100	> 100 µM	> 100	> 100 µM	> 100	> 100 µM	34.1	> 100	> 76.9	> 100 µM
CC(C)(C)OC(=O)NCCCCCCCCn1c2c(c3ccccc3c1=O)C(=O)c1ccccc1-2	7.04	27.5 µM	> 50	> 50 µM	> 50	> 50	11.6	35	> 50	> 50 µM	> 50	> 50 µM	10.6	29.2 µM	10.8	27.5 µM	> 50	> 50	> 50	> 50 µM
COc1ncc(-c2nc3c(n2C(C)C)[C@H](c2ccc(Cl)cc2)N(c2cc(Cl)cn(C)c2=O)C3=O)c(OC)n1	32.6	> 100 µM	41.7	> 100 µM	24.5	87.5	90	> 100	34.5	> 100 µM	36.8	> 100 µM	30	> 100 µM	67.5	> 100 µM			17.2	94.4 µM
C#CCN1CCN(C(=S)N/N=C(\C)c2ccccn2)CC1	1.94	6.34 µM and 6.02 µM	0.0028	3.74 µM and 8.33 µM	0.00287		0.124	5.89	0.019	4.19 µM	0.0781	6.03 µM and 3.32 µM		6.35 µM and 12.7 µM	0.243	4.62 µM and 4.87 µM	0.00334	14	0.00558	2.72 µM and 2.53 µM
COc1cc(/C=C/C(=O)c2cc(F)c(Cl)cc2Cl)cc(OC)c1OC	28.7	> 100 µM	15.2	45 µM	15.2	52.9	82.2	> 100	19.8	54.4 µM	43.9	> 100 µM	56.3	> 100 µM	22.9	97.2 µM	11.4	27.7	42	> 100 µM
COc1cc2c3c(n(CCCN)c(=O)c2cc1OC)-c1ccc(F)cc1C3=O	6.49	13.6 µM	1.03	3.18 µM	0.605	2.71	0.544	2.05	2.24	6.89 µM	1.44	11.4 µM	11.1	27 µM	1.34	2.7 µM	1.24	5.28	13.9	31 µM
Nc1nc2ccc([C@@H]3Nc4ccc5[nH]ncc5c4[C@H]4[C@H]5CCC(C5)[C@H]43)cc2s1	1.39	4.4 µM	0.435	11 µM	1.39	5.3	1.14	2.9	0.505	2.64 µM	0.654	2.62 µM	0.319	2.47 µM	1.4	10 µM	0.328	5.87	2.12	5.46 µM
Nc1nc2c(c3ncccc13)C(c1cccc(Cl)c1)Cc1ncccc1-2 (configuration not stated)	3.83	34.4 µM	0.805	10.8 µM	4.19	41.1	2.45	18.1	1.22	20.6 µM	1.23	12.7 µM	1.12	8.17 µM	3.99	26.5 µM	0.53	> 100	15	44.5 µM
CC[N+](CC)=c1ccc2nc3c(cc(NCc4ccccc4)c4ccccc43)oc-2c1	0.522	3.27 µM	0.189	0.773 µM	0.0949	0.539	0.512	1.86	0.378	2.29 µM	0.273	0.75 µM	0.385	0.808 µM	0.497	1.85 µM	0.121	0.724	0.159	0.387 µM
O=C(Nc1cnn2ccc(N3CCC[C@@H]3c3cc(F)ccc3F)nc12)N1CC[C@H](O)C1	> 100	> 100 µM	> 100	> 100 µM	> 100	> 100	> 100	> 100	> 100	> 100 µM	> 100	> 100 µM	> 100	> 100 µM	> 100	> 100 µM	> 100	> 100		
COc1ccc(-c2cnc(-c3ccc(F)cc3)[nH]2)cc1	2.14	11.2 µM	3.19	> 32.8 µM	2.39	> 27.2	8.25	21.4	5.98	13.9 µM	5.99	14.5 µM	4.26	10.7 µM	6.14	12.3 µM	10.3	> 55.1	5.17	17.2 µM
COc1ccc2cc(C(=O)/C=C/c3cccc(Cl)c3Cl)ccc2c1	50.5	> 100 µM	7.33	> 64.2 µM	5.56	> 46.8	15.4	38.9	2.13	> 34.2 µM	6.51	> 100 µM	28.4	> 90.8 µM	6.08	> 41.5 µM	4.93	> 100	39.6	> 100 µM
Nc1c(C(=O)c2cccc(OCCN3CCOCC3)c2)cnn1-c1ccc(F)cc1	> 25	> 25 µM	> 25	> 25 µM	> 25	> 25	> 25	> 25	> 25	> 25 µM	> 25	> 25 µM	> 25	> 25 µM	> 25	> 25 µM	> 25	> 25	> 25	> 25 µM
Cc1ccc(S(=O)(=O)Oc2ccc3c4c(c(=O)oc3c2)CCCCC4)cc1	96.2	> 100 µM	4.06	> 100 µM	4.55	> 100	> 100	> 100	3.66	> 100 µM	> 100	> 100 µM	71.4	> 100 µM	> 100	> 100 µM	3.51	> 100		
C(CCc1nnc2c(n1)CCCC2)Cc1nnc2c(n1)CCCC2		> 100 µM		> 100 µM		> 100		> 100		> 100 µM		> 100 µM		> 100 µM		> 100 µM		> 100		
C=C(CN1CCN(c2cccc(C(F)(F)F)c2)CC1)c1ccc(C(=O)Nc2ccccc2N)cc1	0.491	> 36.3 µM	1.46	> 50 µM	0.322	2.49	0.696	6.27	0.48	3.62 µM	1.05	9.89 µM			1.1	8.96 µM	0.185	8.27	0.762	17.8 µM
COc1cc2c3c(n(CCN)c(=O)c2cc1OC)-c1cc2c(cc1C3=O)OCO2	1.85	4.51 µM			< 0.0159	0.303	0.122	0.774	0.471		< 0.0185	1.41 µM	0.143	2.43 µM	0.14	0.502 µM	0.0969	> 100	3.84	11.2 µM
COc1cc2c3c(n(CCCN4CCN(C)CC4)c(=O)c2cc1OC)-c1cc2c(cc1C3=O)OCO2	13.9	73 µM	16.9	> 100 µM	2.39	14.1	18	95.8	16	36.1 µM			16	36 µM	12.9	25.5 µM	6.49	22	> 100	> 100 µM
O=C1/C(=C/c2ccccc2)SC(=Nc2ccccc2)N1Nc1ccccc1	29	> 100 µM	10.8	> 100 µM	3.94	27.4	23.4	> 100	5.1	> 100 µM	12.3	42.8 µM			6.57	> 100 µM	6.08	> 100	14.2	> 100 µM
CO[C@H]1[C@H](O)[C@H](O[C@H]2CC[C@@]3(C)[C@H](CC[C@@H]4[C@@H]3CC[C@]3(C)[C@@H](C5=CC(=O)OC5)CC[C@]43O)C2)O[C@@H](C)[C@@H]1O		< 0.0001 µM		0.00148 µM		0.00542				0.00255 µM and < 0.0124 µM		0.00302 µM and 0.0169 µM	0.00233	0.0114 µM and 0.0737 µM		0.000687 µM	0.00062	0.0647		0.00571 µM and < 0.0137 µM
N#C/C(=C\c1ccc(Br)cc1)n1nnc2cccc(F)c21	2.5	8.14 µM			0.416	4.25	2.38	8.49	0.478	1.89 µM			1.41	2.87 µM	1.48	2.93 µM	0.386	> 100	1.86	5.43 µM
COc1cccc(/C=C/C(=O)c2ccc(Cl)cc2Cl)c1OC		39.8 µM	5.04	17.3 µM			16.6	30.3	3.76	12.9 µM	13.7	26.7 µM	18	33.8 µM	10.3	21.9 µM	2.39	5.72	11.2	23.2 µM
N#CC1C(=N)Cc2ccccc2-c2ccccc21 (configuration not stated)	5.38	65.3 µM	4.1	19.6 µM	9.03	> 100	4.59	56.2			2.74	10.3 µM	2.76	9.81 µM	9.66	35.2 µM	2.71	89.4	8.33	69.1 µM
N#Cc1c[nH]n2ccnc12		> 100 µM		> 100 µM				> 100		> 100 µM		> 100 µM		> 100 µM		> 100 µM		> 100		> 100 µM
